The text below walks through data of patent publication US11339156B2, “3-(1H-pyrazol-4-yl)pyridine allosteric modulators of the M4 muscarinic acetylcholine receptor” (Merck Sharp & Dohme Corp., priority 2017, dated 2022).

The structures appear in SMILES notation.

For the assay, the target named is T1, human M4 muscarinic acetylcholine receptor (Homo sapiens, UniProt P08173).
T1 construct: expressed in transfected cells
T1 sequence (P08173 1-479): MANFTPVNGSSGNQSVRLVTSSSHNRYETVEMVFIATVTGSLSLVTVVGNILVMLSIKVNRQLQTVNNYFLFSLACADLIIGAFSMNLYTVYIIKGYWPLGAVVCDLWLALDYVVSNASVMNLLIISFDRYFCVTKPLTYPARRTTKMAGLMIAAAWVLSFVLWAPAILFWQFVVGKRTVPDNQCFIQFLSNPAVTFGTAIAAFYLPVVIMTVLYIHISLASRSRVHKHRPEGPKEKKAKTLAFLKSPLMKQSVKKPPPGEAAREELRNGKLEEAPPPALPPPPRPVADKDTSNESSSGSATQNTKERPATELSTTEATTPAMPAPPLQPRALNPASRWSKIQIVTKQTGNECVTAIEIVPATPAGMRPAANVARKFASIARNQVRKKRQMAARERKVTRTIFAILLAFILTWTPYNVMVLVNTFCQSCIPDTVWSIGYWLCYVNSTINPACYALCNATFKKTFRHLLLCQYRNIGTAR
In words: human FLIPR-based M4 PAM assay (CHO-K1 cells with human M4 receptor and Gαqi5, calcium dye fluorescence). The format is cell-based. Conditions: inflection point of 4 parameter logistic fit; acetylcholine added at 20% of maximum response; read-out: M4PAM IP. In short, it runs like this:
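The FLIPR read recorded 4 min after compound was added across a concentration range, then 3.5 min after acetylcholine giving 20% of its maximal response, with an occasional extra EC70 addition. Cells were dye-loaded for about 1 h at 37 °C. Potency is the curve inflection point from a four-parameter logistic fit.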
Consider `Cc1nc2cc(-c3nc(C#N)ccc3-c3cnn(CC(C)(F)F)c3)ccc2n1C` [Example 31, 5-[1-(2,2-difluoropropyl)-1H-pyrazol-4-yl]-6-(1,2-dimethyl-1H-benzimidazol-5-yl)pyridine-2-carbonitrile], for which the EC50 is 163 nM.
The value for `N#Cc1ccc(-c2cnn(CC(F)(F)C3CC3)c2)c(-c2ccn3ccnc3c2)n1` [Example 1, 5-(1-(2-cyclopropyl-2,2-difluoroethyl)-1H-pyrazol-4-yl)-6-(imidazo[1,2-a]pyridin-7-yl)picolinonitrile] was 58.6 nM; that for `Cc1cn2ccc(-c3nc(C#N)ccc3-c3cnn(CC(C)(O)C(F)(F)F)c3)cc2n1` (stereo not shown) [Example 125, 6-(2-methylimidazo[1,2-a]pyridin-7-yl)-5-(1-(3,3,3-trifluoro-2-hydroxy-2-methylpropyl)-1H-pyrazol-4-yl)picolinonitrile] was 161 nM.
The value for `Cc1nc2cc(-c3nc(C#N)ccc3-c3cnn(CC(F)C(C)(F)F)c3)ccc2n1C` (stereo not shown) [Example 32, 6-(1,2-dimethyl-1H-benzimidazol-5-yl)-5-[1-(2,3,3-trifluorobutyl)-1H-pyrazol-4-yl]pyridine-2-carbonitrile] was 81.9 nM; that for `Cc1cc(-c2cnn(CC3(C(F)(F)F)CC3)c2)c(-c2ccn3ccnc3c2)nc1C#N` [Example 138, 6-imidazo[1,2-a]pyridin-7-yl-3-methyl-5-(1-{[1-(trifluoromethyl)cyclopropyl]methyl}-1H-pyrazol-4-yl)pyridine-2-carbonitrile] was 59.9 nM.
In the case of `Cc1cn2ccc(-c3nc(C#N)ccc3-c3cnn(CC(F)C(F)(F)F)c3)cc2n1` (stereo not shown) [Example 41, 6-(2-methylimidazo[1,2-a]pyridin-7-yl)-5-[1-(2,3,3,3-tetrafluoropropyl)-1H-pyrazol-4-yl]pyridine-2-carbonitrile] it was 62.2 nM.
Regarding `Cc1cc(-c2cnn(CC3(C(F)(F)F)CC3)c2)c(-c2ccn3ccnc3c2)nc1C` [Example 139, 7-[5,6-dimethyl-3-(1-{[1-(trifluoromethyl)cyclopropyl]methyl}-1H-pyrazol-4-yl)pyridin-2-yl]imidazo[1,2-a]pyridine], the EC50 is 162 nM.
As for `Cc1ccc(-c2cnn(CC3CCC(F)(F)CC3)c2)c(-c2ccc3c(c2)C(=O)N(CC2CC2)C3)n1` [Example 14, 2-(cyclopropylmethyl)-6-(3-{1-[(4,4-difluorocyclohexyl)methyl]-1H-pyrazol-4-yl}-6-methylpyridin-2-yl)-2,3-dihydro-1H-isoindol-1-one], the EC50 worked out at 48.8 nM.
The value for `CCC1(Cn2cc(-c3ccc(C#N)nc3-c3ccn4ccnc4c3)cn2)CC1` [Example 37, 5-{1-[(1-ethylcyclopropyl)methyl]-1H-pyrazol-4-yl}-6-imidazo[1,2-a]pyridin-7-ylpyridine-2-carbonitrile] was 14.5 nM.
In the case of `CC(C)C(F)(F)Cn1cc(-c2ccc(C#N)nc2-c2ccn3ccnc3c2)cn1` [Example 21, 5-[1-(2,2-difluoro-3-methylbutyl)-1H-pyrazol-4-yl]-6-imidazo[1,2-a]pyridin-7-ylpyridine-2-carbonitrile] it was 30.7 nM; in that of `CC1(Cn2cc(-c3ccc(C#N)nc3-c3ccn4ccnc4c3)cn2)CC1(F)F` (stereo not shown) [Example 134, 5-(1-((2,2-difluoro-1-methylcyclopropyl)methyl)-1H-pyrazol-4-yl)-6-(imidazo[1,2-a]pyridin-7-yl)picolinonitrile], 57.5 nM; in that of `Cc1cn2ncc(-c3nc(C#N)ccc3-c3cnn(CC(C)(C)C)c3)cc2n1` [Example 88, 5-[1-(2,2-dimethylpropyl)-1H-pyrazol-4-yl]-6-(2-methylimidazo[1,2-b]pyridazin-7-yl)pyridine-2-carbonitrile], 68.7 nM.
In the case of `Cc1cn2ccc(-c3nc(C#N)ccc3-c3cnn(CCC(C)(C)C#N)c3)cc2n1` [Example 49, 5-[1-(3-cyano-3-methylbutyl)-1H-pyrazol-4-yl]-6-(2-methylimidazo[1,2-a]pyridin-7-yl)pyridine-2-carbonitrile] it was 174 nM.
